# Measurements: patent US12059498B2, “Preparation and storage of liposomal RNA formulations suitable for therapy” (BioNTech SE, priority 2017, dated 2024)
# “Also recorded” adds a separate entry of the source.
# Test: Freezing of RNA lipoplexes with cryoprotectants, particle size
# Conditions: RNA lipoplexes frozen with increasing concentration of the compound
# Description: Methods: Different compounds representative for monosaccharides (glucose and sorbitol), disaccharides (sucrose and trehalose), amino acids (arginine, prolin), triols (glycerin) as well as cryoprotectant systems containing mixtures of different sugars (mannitol and sucrose) were investigated in order to identify suited cryoprotectants (FIGS. 25 and 26). Therefore RNA lipoplexes were frozen in the presence of increasing concentration of these compounds. In order to identify minimum content of cryoprotectant at a certain concentration of NaCl, RNA lipoplexes were frozen in the presence of increasing amounts of sucrose or trehalose as representative cryoprotectants (Table 7). The samples were initially frozen a single time in order to determine the concentration range of cryoprotectant to be investigated in detail. In a third experiment, the efficacy of stabilization of the particle size was challenged by freezing of the RNA lipoplexes up to 10 times in the presence of the cryoprotectant trehalose (Table 8).
row,SMILES,stabilization of RNA lipoplexes during freezing (as cryoprotectant)
1,N=C(N)NCCC[C@H](N)C(=O)O [arginine],clearly destabilizes the RNA lipoplexes
2,OC[C@@H](O)[C@@H](O)[C@H](O)[C@@H](O)CO [sorbitol],can be used as cryoprotectants; also recorded: lower
3,OCC(O)CO [Glycerin],can be used as cryoprotectants
